Our source for the inhibition, chromatographic logP and pest or weed control values is patent US12552748B2, “Pyridine (thio)amides as fungicidal compounds” (Bayer Aktiengesellschaft, priority 2020, dated 2026).

The term inhibition denotes the relative decrease from the control value, in per cent. Usually chromatographic logP stands for a lipophilicity value derived from retention on a column.

The test system of data set [1] is Pyrenophora teres. Nature of the data set: Pyrenophora teres in vitro cell test. Format: cell-based. Conditions: 144 h, 20 ppm of active ingredient, liquid culture with spores, 6 days incubation, spectrometric measurement of mycelium growth, read-out: efficacy (inhibition of fungal growth). How it is done: (§1) B-9. Pyrenophora Teres In Vitro Cell Test • Solvent: DMSO • Culture medium: 14.6 g anhydrous D-glucose (VWR), 7.1 g Mycological Peptone (Oxoid), 1.4 g granulated Yeast Extract (Merck), QSP 1 liter • Inoculum: spore suspension Fungicides were solubilized in DMSO and the solution used to prepare the required range of concentrations. […] A spore suspension of P. teres was prepared and diluted to the desired spore density. Fungicides were evaluated for their ability to inhibit spore germination and mycelium growth in liquid culture assay. The compounds were added in the desired concentration to the culture medium with spores. After 6 days incubation, fungi-toxicity of compounds was determined by spectrometric measurement of mycelium growth. Inhibition of fungal growth was determined by comparing the absorbance values in wells containing the fungicides with the absorbance in control wells without fungicides.

A short description of data set [2]: physchem. In kind it is physicochemical. The method, boiled down:
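Reversed-phase HPLC per EEC directive 79/831 Annex V.A8, calibrated with straight-chain alkan-2-ones (C3–C16) of known Log P via linear interpolation of retention times. Lambda-max from UV spectra 200–400 nm at chromatographic peaks.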

The test system of data set [3] is Colletotrichum lindemuthianum. Nature of the data set: Colletotrichum lindemuthianum in vitro cell test. Conditions: 144 h, read-out: efficacy (inhibition of fungal growth). In kind it is cell-based. How it is done:
B-8. Colletotrichum lindemuthianum In Vitro Cell Test
• Solvent: DMSO • Culture medium: 14.6 g anhydrous D-glucose (VWR), 7.1 g Mycological Peptone (Oxoid), 1.4 g granulated Yeast Extract (Merck), QSP 1 liter • Inoculum: spores suspension
Fungicides were solubilized in DMSO and the solution used to prepare the required range of concentrations. The final concentration of DMSO used in the assay was ≤1%.
A spore suspension of C. lindemuthianum was prepared and diluted to the desired spore density.
Fungicides were evaluated for their ability to inhibit spores germination and mycelium growth in liquid culture assay. The compounds were added in the desired concentration to the culture medium with spores. After 6 days incubation, fungi-toxicity of compounds was determined by spectrometric measurement of mycelium growth. Inhibition of fungal growth was determined by comparing the absorbance values in wells containing the fungicides with the absorbance in control wells without fungicides.

Data set [4] has as its system Pyricularia oryzae. The experiment in a line: microbe, parasite or virus in culture. In kind it is cell-based. The conditions noted are these: 120 h, read-out: efficacy (inhibition of fungal growth).
In data set [5] the test system is Botrytis cinerea. The experiment in a line: In vivo preventive test on Botrytis cinerea (grey mould). The conditions noted are these: 500 ppm of active ingredient, preventive spray on gherkin or cabbage, evaluated 4 to 5 days after inoculation, 0% = control plants, 100% = no disease, read-out: efficacy. How it is done: B-2. In Vivo Preventive Test on Botrytis cinerea (Grey Mould [table] The active ingredients were made soluble and homogenized in a mixture of Dimethyl sulfoxide/Acetone/Tween® 80 and then diluted in water to the desired concentration. The young plants of gherkin or cabbage were treated by spraying the active ingredient prepared as described above. Control plants were treated only with an aqueous solution of Acetone/Dimethyl sulfoxide/Tween® 80. After 24 hours, the plants were contaminated by spraying the leaves with an aqueous suspension of Botrytis cinerea spores.

Data set [6] relates to Sphaerotheca fuliginea. Nature of the data set: In vivo preventive test on Sphaerotheca fuliginea (powdery mildew on cucurbits). The conditions noted are these: Podosphaera fuliginea, 192 h; 500 ppm of active ingredient; preventive spray on gherkin; evaluated 8 days after inoculation; 0% = control plants, 100% = no disease; read-out: efficacy. How it is done:
B-4. In Vivo Preventive Test on Sphaerotheca fuliginea (Powdery Mildew on Cucurbits [table] The active ingredients were made soluble and homogenized in a mixture of Dimethyl sulfoxide/Acetone/Tween® 80 and then diluted in water to the desired concentration. The young plants of gherkin were treated by spraying the active ingredient prepared as described above. Control plants were treated only with an aqueous solution of Acetone/Dimethyl sulfoxide/Tween® 80. After 24 hours, the plants were contaminated by spraying the leaves with an aqueous suspension of Sphaerotheca fuliginea spores.

Data set [7] relates to Alternaria alternata. Nature of the data set: Alternaria alternata in vitro cell test. Conditions: 120 h, 20 ppm of active ingredient, liquid culture with spores, 5 days incubation, spectrometric measurement of mycelium growth, read-out: efficacy (inhibition of fungal growth). In kind it is cell-based. How it is done: as §1, with “B-6. Alternaria alternata In” for “B-9. Pyrenophora Teres In”, “Inoculum: spores” for “Inoculum: spore”, “of A. alternata” for “of P. teres”, “After 5” for “After 6”

For `O=C(NCC(F)(F)c1ccc(C2CCCC2)cc1Cl)c1cc(Cl)ncc1Oc1cccc(C(F)F)c1` [Compound I-124, 2-chloro-N-[2-(2-chloro-4-cyclopentyl-phenyl)-2,2-difluoro-ethyl]-5-[3-(difluoromethyl)phenoxy]pyridine-4-carboxamide], the inhibition at 20 ppm in data set [1] was in the range of 90 to 100%. The chromatographic logP in data set [2] turned out to be 5.5.

As to `Cc1ccc(C(F)(F)CNC(=O)c2c(Oc3cccc(C(F)(F)F)c3)cnc(Cl)c2-n2cccn2)c(C)c1` [Compound I-167, 2-chloro-N-[2-(2,4-dimethylphenyl)-2,2-difluoroethyl]-3-(1H-pyrazol-1-yl)-5-[3-(trifluoromethyl)phenoxy]pyridine-4-carboxamide], the inhibition at 20 ppm in data set [1] lay in the range of 90 to 100%; in data set [3], 80 to 89%; in data set [4], 80 to 89%; in data set [7] it was 90 to 100%. For the same compound, the pest or weed control at 500 ppm in data set [5] and in data set [6] was 90 to 100% each time. Further, the chromatographic logP in data set [2] turned out to be 4.51.

As for `Cc1ccc(CCNC(=O)c2cc(Cl)ncc2Oc2ccc3c(c2)OC(F)(F)O3)c(C)c1` [Compound I-140, 2-chloro-5-[(2,2-difluoro-1,3-benzodioxol-5-yl)oxy]-N-[2-(2,4-dimethylphenyl)ethyl]pyridine-4-carboxamide], in data set [1], the inhibition at 20 ppm lay within 90 to 100%. The values for the pest or weed control at 500 ppm in data set [5] and in data set [6] were 70 to 79% and 90 to 100%, respectively. For the same compound, the chromatographic logP in data set [2] was found to be 4.82.
